What all share (assay): KINOMEscan (ScanMAX) kinase profiling
What all share (type): binding

In test [1] the target is T1, panel of 468 kinases (Homo sapiens, UniProt Q13164).
T1 construct: purchased KINOMEscan (ScanMAX) service
The note with it: ERK5; 1 μM; read-out: % control. The protocol:
(§1) The kinase selectivity of inventive compounds 12, 75, and 77 was evaluated by KINOMEscan®. KINOMEscan® (ScanMAX™) analysis was performed against a near comprehensive panel of 468 kinases. The control percentage (% control) for inventive compounds at 1 μM in DMSO was determined by Equation 1: % control=(inventive compound−positive control)/(negative control−positive control)×100%, Equation 1
(§2) wherein the positive control is a compound with a % control value of 0% relative light units (RLU), and the negative control (i.e., DMSO) has % control value of 100% RLU. The enzyme selectivity in the present invention is defined as follows: inventive compounds are considered active for an enzyme when the observed % control is less than 35% (<35%).

Test [2] addresses T2, panel of 468 kinases (Homo sapiens, UniProt Q9HC98).
T2 construct: purchased KINOMEscan (ScanMAX) service
Particulars: NEK6; 1 μM; read-out: % control. As for the experimental part:
as §1, §2

For test [3], the target named is T3, panel of 468 kinases (Homo sapiens, UniProt Q15418).
T3 construct: purchased KINOMEscan (ScanMAX) service
Particulars: 1 μM, read-out: % control. As for the experimental part: as §1, §2

Test [4] concerns the target T4, panel of 468 kinases (Homo sapiens, UniProt Q13873).
T4 construct: purchased KINOMEscan (ScanMAX) service
T4 sequence (Q13873 27-1038): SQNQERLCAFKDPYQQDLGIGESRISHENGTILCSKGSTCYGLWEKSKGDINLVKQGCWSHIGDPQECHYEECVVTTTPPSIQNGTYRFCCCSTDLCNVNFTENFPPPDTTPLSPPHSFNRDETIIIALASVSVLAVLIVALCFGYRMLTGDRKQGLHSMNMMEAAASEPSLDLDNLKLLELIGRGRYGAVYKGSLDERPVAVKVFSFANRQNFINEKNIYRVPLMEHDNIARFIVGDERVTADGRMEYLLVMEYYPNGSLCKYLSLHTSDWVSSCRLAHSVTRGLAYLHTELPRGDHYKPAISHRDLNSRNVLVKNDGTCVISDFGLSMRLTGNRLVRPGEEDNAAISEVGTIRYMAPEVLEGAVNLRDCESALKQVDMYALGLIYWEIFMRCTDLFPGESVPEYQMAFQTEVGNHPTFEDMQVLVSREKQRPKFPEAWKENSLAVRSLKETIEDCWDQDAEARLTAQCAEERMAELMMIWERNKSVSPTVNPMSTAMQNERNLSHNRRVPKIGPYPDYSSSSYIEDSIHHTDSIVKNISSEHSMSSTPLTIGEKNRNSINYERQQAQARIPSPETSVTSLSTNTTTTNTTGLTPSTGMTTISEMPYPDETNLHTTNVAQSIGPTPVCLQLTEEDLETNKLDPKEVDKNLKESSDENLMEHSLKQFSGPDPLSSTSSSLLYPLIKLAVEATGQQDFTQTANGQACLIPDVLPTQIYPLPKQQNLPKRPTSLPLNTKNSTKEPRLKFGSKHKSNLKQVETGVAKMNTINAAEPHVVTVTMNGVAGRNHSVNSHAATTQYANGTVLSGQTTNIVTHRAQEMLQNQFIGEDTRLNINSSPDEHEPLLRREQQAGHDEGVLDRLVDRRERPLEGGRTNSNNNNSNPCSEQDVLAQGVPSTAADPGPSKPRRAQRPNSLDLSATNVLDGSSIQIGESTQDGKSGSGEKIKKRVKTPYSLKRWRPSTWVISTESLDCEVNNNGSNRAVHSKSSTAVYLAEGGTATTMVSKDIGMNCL
Particulars: BMPR2; 1 μM; read-out: % control. The protocol: as §1, §2

For test [5], the target named is T5, panel of 468 kinases (Homo sapiens, UniProt Q59H18).
T5 construct: purchased KINOMEscan (ScanMAX) service
T5 sequence (Q59H18 1-835): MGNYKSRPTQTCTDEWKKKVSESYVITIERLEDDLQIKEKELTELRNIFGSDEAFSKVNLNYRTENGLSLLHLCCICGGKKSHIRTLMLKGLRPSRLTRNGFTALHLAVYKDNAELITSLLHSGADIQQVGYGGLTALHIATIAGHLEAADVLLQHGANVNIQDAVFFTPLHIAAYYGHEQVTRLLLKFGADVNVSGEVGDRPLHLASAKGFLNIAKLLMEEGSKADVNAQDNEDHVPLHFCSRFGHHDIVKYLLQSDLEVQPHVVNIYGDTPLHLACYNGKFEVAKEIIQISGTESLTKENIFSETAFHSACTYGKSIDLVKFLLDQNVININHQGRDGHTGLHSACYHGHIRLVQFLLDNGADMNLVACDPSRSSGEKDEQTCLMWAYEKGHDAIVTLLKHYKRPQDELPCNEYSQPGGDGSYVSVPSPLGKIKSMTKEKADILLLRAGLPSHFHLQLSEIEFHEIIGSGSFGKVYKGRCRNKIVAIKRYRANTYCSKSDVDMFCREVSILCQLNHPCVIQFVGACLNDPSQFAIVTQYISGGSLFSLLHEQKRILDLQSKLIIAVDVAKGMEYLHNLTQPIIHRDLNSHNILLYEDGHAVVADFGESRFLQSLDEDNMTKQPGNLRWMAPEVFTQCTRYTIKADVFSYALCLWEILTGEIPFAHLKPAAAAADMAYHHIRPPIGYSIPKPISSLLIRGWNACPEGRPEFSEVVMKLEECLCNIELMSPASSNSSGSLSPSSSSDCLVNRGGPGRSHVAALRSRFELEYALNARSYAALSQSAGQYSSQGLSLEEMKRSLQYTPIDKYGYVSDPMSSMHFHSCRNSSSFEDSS
The note with it: TNNI3K; 1 μM; read-out: % control. As for the experimental part: as §1, §2

Read-outs that look alike come from different tables or passages of the source.

T3 sequence (Q15418 whole entry): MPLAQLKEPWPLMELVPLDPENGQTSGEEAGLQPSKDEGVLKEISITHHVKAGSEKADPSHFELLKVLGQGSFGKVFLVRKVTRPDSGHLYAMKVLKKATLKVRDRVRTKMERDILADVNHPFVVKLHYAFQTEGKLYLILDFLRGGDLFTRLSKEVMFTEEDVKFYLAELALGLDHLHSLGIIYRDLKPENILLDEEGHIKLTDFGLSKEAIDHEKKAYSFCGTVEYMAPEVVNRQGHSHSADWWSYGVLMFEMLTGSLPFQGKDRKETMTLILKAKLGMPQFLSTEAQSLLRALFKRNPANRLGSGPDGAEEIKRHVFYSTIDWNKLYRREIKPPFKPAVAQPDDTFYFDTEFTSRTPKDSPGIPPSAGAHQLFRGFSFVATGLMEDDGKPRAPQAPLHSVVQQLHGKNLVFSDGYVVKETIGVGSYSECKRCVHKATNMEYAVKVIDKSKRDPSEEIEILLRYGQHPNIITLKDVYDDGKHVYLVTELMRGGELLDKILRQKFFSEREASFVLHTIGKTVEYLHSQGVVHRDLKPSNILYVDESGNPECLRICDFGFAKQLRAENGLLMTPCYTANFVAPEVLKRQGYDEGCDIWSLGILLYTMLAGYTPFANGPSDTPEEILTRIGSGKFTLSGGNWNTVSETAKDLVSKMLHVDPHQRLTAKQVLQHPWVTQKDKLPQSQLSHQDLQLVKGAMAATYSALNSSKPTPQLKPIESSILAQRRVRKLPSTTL
T2 sequence (Q9HC98 whole entry): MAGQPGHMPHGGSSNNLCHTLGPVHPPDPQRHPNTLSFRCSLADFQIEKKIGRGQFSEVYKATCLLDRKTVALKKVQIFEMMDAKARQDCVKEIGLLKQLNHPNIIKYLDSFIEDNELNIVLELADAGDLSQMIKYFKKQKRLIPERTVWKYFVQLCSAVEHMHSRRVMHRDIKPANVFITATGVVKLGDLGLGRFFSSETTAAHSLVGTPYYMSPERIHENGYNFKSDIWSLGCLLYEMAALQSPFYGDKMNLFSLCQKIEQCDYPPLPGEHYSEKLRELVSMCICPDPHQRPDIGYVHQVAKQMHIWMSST
T1 sequence (Q13164 whole entry): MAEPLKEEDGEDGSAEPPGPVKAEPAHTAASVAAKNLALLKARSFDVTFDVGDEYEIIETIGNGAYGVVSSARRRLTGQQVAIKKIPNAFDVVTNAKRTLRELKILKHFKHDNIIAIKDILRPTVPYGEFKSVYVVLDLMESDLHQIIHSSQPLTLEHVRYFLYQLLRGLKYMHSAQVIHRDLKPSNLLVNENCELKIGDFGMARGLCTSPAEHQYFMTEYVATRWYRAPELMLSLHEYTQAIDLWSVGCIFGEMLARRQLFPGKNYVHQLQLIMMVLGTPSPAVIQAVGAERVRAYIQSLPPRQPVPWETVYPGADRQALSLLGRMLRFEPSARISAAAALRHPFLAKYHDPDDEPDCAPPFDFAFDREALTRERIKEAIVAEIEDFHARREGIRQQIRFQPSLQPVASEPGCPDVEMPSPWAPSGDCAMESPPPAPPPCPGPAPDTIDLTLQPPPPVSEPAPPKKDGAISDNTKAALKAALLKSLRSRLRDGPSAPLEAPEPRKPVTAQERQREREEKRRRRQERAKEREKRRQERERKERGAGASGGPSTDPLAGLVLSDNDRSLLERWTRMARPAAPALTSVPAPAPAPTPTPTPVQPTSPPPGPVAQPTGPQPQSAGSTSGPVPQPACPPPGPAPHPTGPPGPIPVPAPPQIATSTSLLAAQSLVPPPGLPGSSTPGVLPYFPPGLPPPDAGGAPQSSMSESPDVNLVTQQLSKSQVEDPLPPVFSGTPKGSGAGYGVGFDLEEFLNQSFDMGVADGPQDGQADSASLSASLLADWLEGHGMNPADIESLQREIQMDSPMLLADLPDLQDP

As to `CNc1nc(Nc2ccc(S(=O)(=O)N3CCC(N4CCOCC4)CC3)cc2OC)nc2[nH]cc(Cl)c12` [Compound 12, 5-chloro-N2-(2-methoxy-4-((4-morpholinopiperidin-1-yl)sulfonyl)phenyl)-N4-methyl-7H-pyrrolo[2,3-d]pyrimidine-2,4-diamine], the remaining binding at 1 µM amounted to 53% at panel of 468 kinases [1]; 100% on panel of 468 kinases [2]; 100% at panel of 468 kinases [3] (RSK1(Kin.Dom.1-N-terminal)); 100% at panel of 468 kinases [3] (RSK1(Kin.Dom.2-C-terminal)); 97% at panel of 468 kinases [4]; 100% on panel of 468 kinases [5].

`CNc1nc(Nc2ccc(P3(=O)CCN(C4CCOCC4)CC3)cc2OC)nc2[nH]cc(Cl)c12` [Compound 77, 4-(4-((5-chloro-4-(methylamino)-7H-pyrrolo[2,3-d]pyrimidin-2-yl)amino)-3-methoxyphenyl)-1-(tetrahydro-2H-pyran-4-yl)-1,4-azaphosphinane 4-oxide]: the remaining binding at 1 µM on panel of 468 kinases [1] is 78%; on panel of 468 kinases [2], 100%; on panel of 468 kinases [3] (RSK1(Kin.Dom.1-N-terminal)) it was 100%; on panel of 468 kinases [3] (RSK1(Kin.Dom.2-C-terminal)) it was 64%; on panel of 468 kinases [4] it was 85%; on panel of 468 kinases [5], 100%.

Consider `CNc1nc(Nc2ccc(C(=O)N3CCC(N4CCOCC4)CC3)c3c2OCO3)nc2[nH]cc(Cl)c12` [Compound 75, (7-((5-chloro-4-(methylamino)-7H-pyrrolo[2,3-d]pyrimidin-2-yl)amino)benzo[d][1,3]dioxol-4-yl)(4-morpholinopiperidin-1-yl)methanone], for which the remaining binding at 1 µM amounted to 51% on panel of 468 kinases [1]; 100% at panel of 468 kinases [2]; 100% on panel of 468 kinases [3] (RSK1(Kin.Dom.1-N-terminal)); 99% at panel of 468 kinases [3] (RSK1(Kin.Dom.2-C-terminal)); 92% on panel of 468 kinases [4]; 100% at panel of 468 kinases [5].
